Where “and” joins values, the source holds several entries; their conditions need not be identical. Identical values can stand only once. Like-named read-outs stand apart in the source and are kept apart here.
Assays:
Human mTOR (FLAG-TOR) = Human mTOR (FLAG-TOR) (Homo sapiens, UniProt P42345); assay: mTOR kinase assay (DELFIA format, purified enzyme); format: biochemical; conditions: read-out: IC50 mTOR
[1] = test system: human breast MDA-MB-361 tumor cell line; assay: In vitro cell culture growth assay (MTS), MDA-MB-361; format: cell-based; conditions: Homo sapiens, MTS cell growth assay, three days after drug treatment, read-out: IC50 MDA-MB-361
[2] = test system: human prostate PC3-mm2 tumor cell line; assay: In vitro cell culture growth assay (MTS), PC3-mm2; format: cell-based; conditions: Homo sapiens, PC3MM2, 72 h, MTS cell growth assay, three days after drug treatment, read-out: IC50 PC3-mm2
PI3K-α = PI3K-α (Homo sapiens, UniProt P42336); assay: PI3K-alpha fluorescence polarization assay; conditions: read-out: IC50 PI3Kα
Chain of PI3K-α (P42336 whole entry, species assumed): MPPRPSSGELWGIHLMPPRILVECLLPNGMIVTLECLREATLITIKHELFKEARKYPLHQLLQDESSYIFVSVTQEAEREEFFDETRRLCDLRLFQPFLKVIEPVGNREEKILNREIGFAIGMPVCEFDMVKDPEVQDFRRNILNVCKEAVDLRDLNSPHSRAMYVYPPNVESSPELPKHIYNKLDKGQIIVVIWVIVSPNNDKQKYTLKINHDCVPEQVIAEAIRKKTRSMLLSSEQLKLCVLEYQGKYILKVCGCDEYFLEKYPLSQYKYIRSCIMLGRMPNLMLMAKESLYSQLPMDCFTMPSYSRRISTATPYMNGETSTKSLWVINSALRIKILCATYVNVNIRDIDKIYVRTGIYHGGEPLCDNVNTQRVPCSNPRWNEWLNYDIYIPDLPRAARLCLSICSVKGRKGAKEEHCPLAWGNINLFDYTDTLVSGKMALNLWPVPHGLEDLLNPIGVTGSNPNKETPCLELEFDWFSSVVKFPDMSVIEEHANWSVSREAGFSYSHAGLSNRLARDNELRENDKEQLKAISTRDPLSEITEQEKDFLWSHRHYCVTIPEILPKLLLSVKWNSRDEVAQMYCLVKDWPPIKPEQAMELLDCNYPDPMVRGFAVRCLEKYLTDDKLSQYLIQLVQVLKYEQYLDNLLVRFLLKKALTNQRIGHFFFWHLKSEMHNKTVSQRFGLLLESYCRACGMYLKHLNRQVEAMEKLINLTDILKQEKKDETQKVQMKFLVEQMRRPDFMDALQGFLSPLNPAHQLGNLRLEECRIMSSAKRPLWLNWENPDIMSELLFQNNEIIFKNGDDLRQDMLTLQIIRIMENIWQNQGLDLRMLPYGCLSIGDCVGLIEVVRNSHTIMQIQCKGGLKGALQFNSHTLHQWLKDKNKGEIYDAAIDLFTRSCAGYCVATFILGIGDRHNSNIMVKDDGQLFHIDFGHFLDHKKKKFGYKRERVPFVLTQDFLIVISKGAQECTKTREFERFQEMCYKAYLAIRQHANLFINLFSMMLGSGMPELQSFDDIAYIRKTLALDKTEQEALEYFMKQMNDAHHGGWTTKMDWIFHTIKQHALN
Chain of PI3K-α (P27986 whole entry partner, species assumed): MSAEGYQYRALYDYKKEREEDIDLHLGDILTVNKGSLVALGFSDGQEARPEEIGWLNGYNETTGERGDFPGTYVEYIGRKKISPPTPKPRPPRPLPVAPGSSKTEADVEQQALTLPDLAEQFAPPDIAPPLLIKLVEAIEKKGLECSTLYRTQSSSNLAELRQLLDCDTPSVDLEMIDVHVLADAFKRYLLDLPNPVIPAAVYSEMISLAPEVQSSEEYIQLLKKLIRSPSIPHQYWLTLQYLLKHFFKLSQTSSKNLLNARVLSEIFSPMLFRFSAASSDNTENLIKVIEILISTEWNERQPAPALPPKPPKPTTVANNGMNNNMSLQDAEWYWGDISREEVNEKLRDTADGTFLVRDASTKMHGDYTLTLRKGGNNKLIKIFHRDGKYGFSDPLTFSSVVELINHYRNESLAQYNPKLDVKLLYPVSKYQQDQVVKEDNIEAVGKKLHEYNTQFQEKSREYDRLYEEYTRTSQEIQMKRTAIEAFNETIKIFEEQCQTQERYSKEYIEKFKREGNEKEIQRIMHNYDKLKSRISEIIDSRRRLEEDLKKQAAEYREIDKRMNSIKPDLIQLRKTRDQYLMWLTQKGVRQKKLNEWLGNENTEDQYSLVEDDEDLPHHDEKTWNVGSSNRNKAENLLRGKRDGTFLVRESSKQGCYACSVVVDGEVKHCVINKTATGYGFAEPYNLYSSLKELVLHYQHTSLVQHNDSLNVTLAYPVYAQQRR

PI3K-γ = PI3K-γ (Homo sapiens, UniProt P48736); assay: PI3K-gamma fluorescence polarization assay; conditions: read-out: IC50 PI3Kγ
Chain of PI3K-γ (P48736 whole entry, species assumed): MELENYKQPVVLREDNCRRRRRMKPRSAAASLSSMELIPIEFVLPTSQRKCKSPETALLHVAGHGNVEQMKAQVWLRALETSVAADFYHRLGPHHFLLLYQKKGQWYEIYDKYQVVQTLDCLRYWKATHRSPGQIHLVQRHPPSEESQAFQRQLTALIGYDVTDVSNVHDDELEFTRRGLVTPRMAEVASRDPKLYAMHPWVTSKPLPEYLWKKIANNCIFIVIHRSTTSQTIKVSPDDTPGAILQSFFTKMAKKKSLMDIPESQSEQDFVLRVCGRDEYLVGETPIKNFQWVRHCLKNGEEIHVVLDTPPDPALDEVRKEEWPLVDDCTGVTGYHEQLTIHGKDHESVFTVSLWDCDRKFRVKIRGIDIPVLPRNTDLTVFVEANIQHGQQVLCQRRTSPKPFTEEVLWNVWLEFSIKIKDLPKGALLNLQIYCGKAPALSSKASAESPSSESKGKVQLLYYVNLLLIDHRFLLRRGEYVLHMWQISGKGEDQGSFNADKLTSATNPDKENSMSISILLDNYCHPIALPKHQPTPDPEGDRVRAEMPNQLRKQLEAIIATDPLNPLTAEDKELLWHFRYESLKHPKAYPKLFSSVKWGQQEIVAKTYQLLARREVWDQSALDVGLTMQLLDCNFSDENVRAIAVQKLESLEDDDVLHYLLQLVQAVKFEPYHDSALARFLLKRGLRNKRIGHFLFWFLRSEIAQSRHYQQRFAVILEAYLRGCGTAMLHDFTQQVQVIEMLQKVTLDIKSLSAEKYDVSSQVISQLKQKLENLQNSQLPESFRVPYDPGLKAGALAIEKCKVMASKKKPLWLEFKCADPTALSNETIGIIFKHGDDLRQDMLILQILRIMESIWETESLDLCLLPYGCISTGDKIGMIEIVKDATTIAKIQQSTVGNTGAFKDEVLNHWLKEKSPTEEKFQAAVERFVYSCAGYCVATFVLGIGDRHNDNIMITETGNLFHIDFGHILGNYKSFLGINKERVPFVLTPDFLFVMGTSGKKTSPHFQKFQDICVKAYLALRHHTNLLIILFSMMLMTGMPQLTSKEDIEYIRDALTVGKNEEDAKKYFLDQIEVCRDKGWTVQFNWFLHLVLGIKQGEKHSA

[3] = MDA-MB-361, 72 h, MDA-MB-361 cells

Chain of Human mTOR (FLAG-TOR) (P42345 1360-2549 limits assumed): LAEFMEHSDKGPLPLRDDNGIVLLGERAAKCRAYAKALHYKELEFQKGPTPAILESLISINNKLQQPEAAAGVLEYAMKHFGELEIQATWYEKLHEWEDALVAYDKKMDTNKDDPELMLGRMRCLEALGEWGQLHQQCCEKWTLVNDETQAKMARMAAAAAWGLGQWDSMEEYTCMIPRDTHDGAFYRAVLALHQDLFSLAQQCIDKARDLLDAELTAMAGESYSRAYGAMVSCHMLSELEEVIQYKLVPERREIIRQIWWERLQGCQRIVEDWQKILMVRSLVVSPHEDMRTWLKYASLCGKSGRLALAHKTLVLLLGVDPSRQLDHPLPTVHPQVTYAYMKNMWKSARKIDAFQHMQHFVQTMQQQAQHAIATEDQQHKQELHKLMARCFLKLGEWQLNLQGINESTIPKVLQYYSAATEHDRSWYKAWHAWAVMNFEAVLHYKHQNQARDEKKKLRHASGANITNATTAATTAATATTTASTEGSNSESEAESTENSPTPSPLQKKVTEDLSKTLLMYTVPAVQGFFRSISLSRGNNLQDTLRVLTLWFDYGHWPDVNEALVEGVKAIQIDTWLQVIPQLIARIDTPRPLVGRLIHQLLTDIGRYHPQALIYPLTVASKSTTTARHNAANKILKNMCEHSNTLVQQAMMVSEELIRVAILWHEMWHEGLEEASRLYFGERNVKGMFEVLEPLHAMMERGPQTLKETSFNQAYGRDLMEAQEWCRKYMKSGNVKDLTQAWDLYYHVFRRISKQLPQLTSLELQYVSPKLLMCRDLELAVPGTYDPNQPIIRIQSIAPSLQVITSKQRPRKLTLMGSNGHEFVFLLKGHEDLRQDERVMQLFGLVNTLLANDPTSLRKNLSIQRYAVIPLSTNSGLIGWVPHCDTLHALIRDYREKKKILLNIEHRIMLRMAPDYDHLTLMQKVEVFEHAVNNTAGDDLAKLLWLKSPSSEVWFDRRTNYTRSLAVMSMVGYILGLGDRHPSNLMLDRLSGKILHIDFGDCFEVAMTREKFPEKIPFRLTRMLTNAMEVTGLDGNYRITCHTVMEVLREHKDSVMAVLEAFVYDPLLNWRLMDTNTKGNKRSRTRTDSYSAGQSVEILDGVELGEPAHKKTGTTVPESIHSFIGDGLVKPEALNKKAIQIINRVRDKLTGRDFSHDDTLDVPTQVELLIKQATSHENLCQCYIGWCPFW

**Q.** With `Cc1ccc(NC(=O)Nc2ccc(-c3nc(N4CCOCC4)nc(N4CCOCC4)n3)cc2)cc1` [Example 5, 1-[4-(4,6-dimorpholin-4-yl-1,3,5-triazin-2-yl)phenyl]-3-(4-methylphenyl)urea] as the molecule, how does the IC50 (Human mTOR (FLAG-TOR)) read?
**A.** 6.3 nM

**Q.** What about the IC50 ([1]; MDA-MB-361, 72 h) of the same molecule?
**A.** 45 nM

**Q.** And the IC50 [2]?
**A.** 43 nM

**Q.** What about the IC50 (PI3K-α) of the same molecule?
**A.** 17 nM

**Q.** And the IC50 (PI3K-γ)?
**A.** 438 nM

**Q.** What does the source list for `C=C(OCC)c1nc(-c2ccc(NC(=O)Nc3ccncc3)cc2)nc(N2CCOCC2)n1` [Example 199, 1-{4-[4-(1-ethoxyvinyl)-6-morpholin-4-yl-1,3,5-triazin-2-yl]phenyl}-3-pyridin-4-ylurea]?
**A.** IC50 (Human mTOR (FLAG-TOR)): 1 nM; IC50 ([1]; MDA-MB-361, 72 h): 96 nM; IC50 [2]: 93 nM; IC50 (PI3K-α): 44 nM; IC50 (PI3K-γ): 144 nM

**Q.** For `CCOC(=O)N1CCC(Oc2nc(-c3ccc(NC(=O)Nc4ccncc4)cc3)nc(N3CCOCC3)n2)CC1` [Example 689, ethyl 4-[(4-morpholin-4-yl-6-{4-[(pyridin-4-ylcarbamoyl)amino]phenyl}-1,3,5-triazin-2-yl)oxy]piperidine-1-carboxylate], which IC50 (Human mTOR (FLAG-TOR)) is on record?
**A.** 39 nM

**Q.** What about the IC50 ([1]; 72 h, MDA-MB-361 cells) of the same molecule?
**A.** 53 nM

**Q.** And the IC50 ([2]; PC3-mm2 cells)?
**A.** 85 nM

**Q.** And the IC50 (PI3K-α)?
**A.** 217 nM

**Q.** And the IC50 (PI3K-γ)?
**A.** 2480 nM

**Q.** Which results are given for `CCN1CCN(C(=O)c2ccc(NC(=O)Nc3ccc(-c4nc(-c5cccs5)nc(N5CCOCC5)n4)cc3)cc2)CC1` [Example 575, 1-{4-[(4-ethylpiperazin-1-yl)carbonyl]phenyl}-3-{4-[4-morpholin-4-yl-6-(2-thienyl)-1,3,5-triazin-2-yl]phenyl}urea]?
**A.** IC50 (Human mTOR (FLAG-TOR)): 15 nM; IC50 ([1]; 72 h, MDA-MB-361 cells): 15 nM; IC50 ([2]; PC3-mm2 cells): 242 nM; IC50 (PI3K-α): 3 nM; IC50 (PI3K-γ): 19 nM

**Q.** `O=C(Nc1ccc(C(=O)N2CCNCC2)cc1)Nc1ccc(-c2nc(N3CCOCC3)nc(N3C4CCCC3COC4)n2)cc1` [Example 793, 1-{4-[4-morpholin-4-yl-6-(3-oxa-9-azabicyclo[3.3.1]non-9-yl)-1,3,5-triazin-2-yl]phenyl}-3-[4-(piperazin-1-ylcarbonyl)phenyl]urea] was tested. Which IC50 (Human mTOR (FLAG-TOR)) did it give?
**A.** 0.42 nM

**Q.** And the IC50 [1, 3]?
**A.** 2 nM

**Q.** What about the IC50 ([2]; PC3-mm2 cells) of the same molecule?
**A.** 26 nM

**Q.** What about the IC50 (PI3K-α) of the same molecule?
**A.** 1 nM

**Q.** What about the IC50 (PI3K-γ) of the same molecule?
**A.** 15 nM

**Q.** Which results are given for `CCCCc1nc(-c2ccc(NC(=O)Nc3ccc(C(=O)NC4CCN(C)CC4)cc3)cc2)nc(N2CCOCC2)n1` [Example 272, 4-({[4-(4-butyl-6-morpholin-4-yl-1,3,5-triazin-2-yl)phenyl]carbamoyl}amino)-N-(1-methylpiperidin-4-yl)benzamide]?
**A.** IC50 (Human mTOR (FLAG-TOR)): 30 nM; IC50 ([1]; MDA-MB-361, 72 h): 70 nM; IC50 [2]: 340 nM; IC50 (PI3K-α): 5 nM; IC50 (PI3K-γ): 54 nM

**Q.** For `CN1CCN(CCCc2nc(-c3ccc(NC(=O)Nc4ccncc4)cc3)nc(N3CCOCC3)n2)CC1` [Example 277, 1-(4-{4-[3-(4-methylpiperazin-1-yl)propyl]-6-morpholin-4-yl-1,3,5-triazin-2-yl}phenyl)-3-pyridin-4-ylurea], which IC50 (Human mTOR (FLAG-TOR)) is on record?
**A.** 60 nM and 59.5 nM

**Q.** And the IC50 ([1]; MDA-MB-361, 72 h)?
**A.** 530 nM

**Q.** What about the IC50 ([2]; PC3-mm2 cells) of the same molecule?
**A.** 572 nM

**Q.** What about the IC50 [2] of the same molecule?
**A.** 572 nM

**Q.** And the IC50 (PI3K-α)?
**A.** 30 nM

**Q.** What about the IC50 (PI3K-α; listed as 734) of the same molecule?
**A.** 25.5 nM

**Q.** What about the IC50 (PI3K-γ) of the same molecule?
**A.** 276 nM

**Q.** And the IC50 (PI3K-γ; listed as 734)?
**A.** 210 nM

**Q.** How did the IC50 (Human mTOR (FLAG-TOR)) turn out when `O=C(Nc1ccc(C(=O)N2CCC(N3CCCCC3)CC2)cc1)Nc1ccc(-c2nc(N3CCOCC3)nc(N3C4COCC3COC4)n2)cc1` [Example 777, 1-[4-(1,4′-bipiperidin-1′-ylcarbonyl)phenyl]-3-{4-[4-(3,7-dioxa-9-azabicyclo[3.3.1]non-9-yl)-6-morpholin-4-yl-1,3,5-triazin-2-yl]phenyl}urea] was run?
**A.** 0.265 nM

**Q.** What about the IC50 [1, 3] of the same molecule?
**A.** 2 nM

**Q.** What about the IC50 ([2]; PC3-mm2 cells) of the same molecule?
**A.** 4 nM

**Q.** What about the IC50 (PI3K-α) of the same molecule?
**A.** 4 nM

**Q.** And the IC50 (PI3K-γ)?
**A.** 39 nM

**Q.** Which results are given for `CCN1CCN(C(=O)c2ccc(NC(=O)Nc3ccc(-c4nc(N5CCOC[C@@H]5C)nc(N5CCOC[C@@H]5C)n4)cc3)cc2)CC1` [Example 613, 1-(4-{4,6-bis[(3S)-3-methylmorpholin-4-yl]-1,3,5-triazin-2-yl}phenyl)-3-{4-[(4-ethylpiperazin-1-yl)carbonyl]phenyl}urea]?
**A.** IC50 (Human mTOR (FLAG-TOR)): 1 nM; IC50 ([1]; 72 h, MDA-MB-361 cells): 6 nM; IC50 ([2]; PC3-mm2 cells): 21 nM; IC50 (PI3K-α): 3.8 nM; IC50 (PI3K-γ): 53.5 nM

From patent publication US20090304692A1, “TRIAZINE COMPOUNDS AS PI3 KINASE AND MTOR INHIBITORS” (Wyeth, priority 2008, published 2009)
